From ChEMBL document CHEMBL1201862, “PubChem BioAssay data set” (2004) come the findings set out here.

Experiment [1] in a line: HEp-2 cell cytotoxicity, dose response, cytotoxicity control for RSV inhibitor project, HTS (AID 2410). The format is functional. To be noted: human respiratory syncytial virus.
Experiment [2] in a line: A Cell Based Secondary Assay To Explore Cytotoxicity of Compounds that Sensitize Mycobacterium Tuberculosis to Beta-Lactam Antibiotics. The format is functional.
Experiment [3] concerns the target T1, Streptokinase A (Streptococcus pyogenes serotype M1, UniProt P10520).
T1 sequence (P10520 whole entry): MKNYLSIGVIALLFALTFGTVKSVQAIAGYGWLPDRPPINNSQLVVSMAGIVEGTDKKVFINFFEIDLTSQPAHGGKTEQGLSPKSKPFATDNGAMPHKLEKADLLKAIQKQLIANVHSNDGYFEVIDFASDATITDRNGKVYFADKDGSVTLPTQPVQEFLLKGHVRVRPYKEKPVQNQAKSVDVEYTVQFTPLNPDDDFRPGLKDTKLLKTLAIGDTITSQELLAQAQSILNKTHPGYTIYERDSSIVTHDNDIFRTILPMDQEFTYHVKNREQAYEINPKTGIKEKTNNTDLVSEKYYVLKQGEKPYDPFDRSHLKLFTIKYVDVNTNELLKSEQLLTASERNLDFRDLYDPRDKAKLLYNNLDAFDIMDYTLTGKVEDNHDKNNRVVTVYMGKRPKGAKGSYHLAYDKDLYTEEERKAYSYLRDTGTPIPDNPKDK
Briefly: S. pyogenes streptokinase expression inhibitors, potency, dose response, plasminogen activation absorbance, OD405 (AID 1914).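 Further: secreted streptokinase activity via plasminogen activation per viability signal from cell pellet.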 The format is functional, Streptococcus pyogenes M1 GAS.

In experiment [4] the test system is Streptococcus sp. 'group A'. Briefly: growth inhibition of control SK(-) GAS strain, dose response, counter-screen for streptokinase expression inhibitor project, luminescence, kanamycin, BacTiterGlo, confirmation (AID 1900). It is filed as functional, organism-based.
Experiment [5] deals with HEK293. Nature of the experiment: cytotoxicity in HEK293T NF-kB-Luc cells, SAR follow-up, cytotoxicity control for NF-kB activator project, cell-based, resazurin fluorescence (AID 493251). It is filed as functional. To be noted: Homo sapiens.
Experiment [6] can be described thus: cells.
Experiment [7] concerns Jurkat. Nature of the experiment: SAR Analysis of small molecule inhibitors of T-cell specific antigen receptor-induced NF-kB activation in a Jurkat cell line using a luminescence assay - Set 2. [Related pubchem assays (depositor defined):AID435003, AID435012, AID465]. It is filed as functional, cell-based. To be noted: Homo sapiens.
Experiment [8] deals with HEK293. Nature of the experiment: SAR Analysis of small molecule inhibitors of T-cell specific antigen receptor-induced NF-kB activation in a HEK-293T cell line using a luminescence assay - Set 2. [Related pubchem assays (depositor defined):AID435003, AID435012, AID489026]. The format is functional, cell-based. To be noted: Homo sapiens.
Experiment [9] concerns Streptococcus. Briefly: Group A Streptococcus viability loss, dose response, counter-screen for streptokinase expression inhibitor project, luminescence, BacTiterGlo (AID 1915).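 Further: potency for reduction of bacterial viability or growth.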 The format is functional, organism-based.
For experiment [10], the target named is DNA topoisomerase (Yersinia pestis, UniProt A0A2S9PM60). Briefly: Y. pestis Topo-I inhibitors, cleavage product readout, dose response, biochemical, cherry-pick (AID 588525).
Experiment [11] is described as follows: Vero cell cytotoxicity, cytotoxicity control for M. tuberculosis inhibitor project, purified and synthesized samples, set 3 (AID 504684). It is filed as functional. The note with it: […].
Experiment [12] is described as follows: THP-1 cell cytotoxicity, cytotoxicity control, set 4 (AID 504911). It is filed as functional. The note with it: Mycobacterium tuberculosis.
The nature of experiment [13]: THP-1 cell cytotoxicity, dose response, cytotoxicity control, set 3 (AID 504852). The note with it: Mycobacterium tuberculosis. It is filed as functional.
Experiment [14] in a line: A Cell Based Secondary Assay to Explore Cytotoxicity in THP-1 Cells of Compounds that Modulate Mycobacterium tuberculosis in Media Containing Glycerol versus Media without Glycerol (2). It is filed as functional.
The nature of experiment [15]: HepG2 cell cytotoxicity, dose response, cytotoxicity control, set 3 (AID 504853). It is filed as functional. The note with it: Mycobacterium tuberculosis.
The nature of experiment [16]: A Cell Based Secondary Assay to Explore Cytotoxicity in HepG2 Cells of Compounds that Modulate Mycobacterium tuberculosis in Media Containing Glycerol versus Media without Glycerol (2). It is filed as functional.
Experiment [17] can be described thus: HepG2 cell cytotoxicity, cytotoxicity control, set 4 (AID 504910). To be noted: Mycobacterium tuberculosis. The format is functional.
Experiment [18] in a line: cells. The format is functional.
The nature of experiment [19]: Luminescence Cell-Based Dose Response HTS to Identify Inhibitors of 5'UTR Stem-Loop Driven Prion Protein mRNA Translation in H4 Neuroglioblastoma Cells. [Related pubchem assays: 1827 (Project Summary), 1813 (Primary HTS)]. The format is functional.
Experiment [20] deals with BJ. Nature of the experiment: cytotoxicity toward BJ-TERT-LT-ST fibroblasts, dose response, cell-based, RAS-independent, luminescence (AID 1935).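 Further: BJ fibroblasts immortalized with TERT plus LT and ST oncogenes.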 The format is functional. The note with it: Homo sapiens.
Experiment [21] deals with BJ. Briefly: cytotoxicity toward BJ-TERT fibroblasts, dose response, cell-based, RAS-independent, luminescence (AID 1933). The format is functional. To be noted: Homo sapiens.
Experiment [22] has as its target T2, High affinity choline transporter 1 (Homo sapiens, UniProt Q9GZV3).
T2 sequence (Q9GZV3 whole entry): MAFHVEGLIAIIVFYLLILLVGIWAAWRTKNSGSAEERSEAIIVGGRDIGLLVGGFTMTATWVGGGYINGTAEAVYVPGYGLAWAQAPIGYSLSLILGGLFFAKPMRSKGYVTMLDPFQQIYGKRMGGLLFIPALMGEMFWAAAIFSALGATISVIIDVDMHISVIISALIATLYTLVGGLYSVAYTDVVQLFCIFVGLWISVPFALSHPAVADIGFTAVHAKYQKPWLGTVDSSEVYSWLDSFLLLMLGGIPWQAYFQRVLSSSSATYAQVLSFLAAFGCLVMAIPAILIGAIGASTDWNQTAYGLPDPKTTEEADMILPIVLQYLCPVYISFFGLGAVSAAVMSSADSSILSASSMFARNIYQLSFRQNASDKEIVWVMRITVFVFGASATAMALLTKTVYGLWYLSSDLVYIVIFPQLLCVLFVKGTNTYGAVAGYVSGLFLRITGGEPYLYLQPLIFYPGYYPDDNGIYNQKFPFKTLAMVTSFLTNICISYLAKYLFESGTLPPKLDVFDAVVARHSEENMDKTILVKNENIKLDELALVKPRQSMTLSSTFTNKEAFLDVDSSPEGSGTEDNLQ
Nature of the experiment: CHT activators, dose response, cell-based, 10-point CRC, membrane potential dye (AID 602376). It is filed as functional.

Experiment [23] can be described thus: cytotoxicity toward DRD oncogenic fibroblasts, dose response, cell-based, non-viral oncogenic, luminescence (AID 1934). It is filed as functional. To be noted: Homo sapiens.
Experiment [24] relates to BJ. Briefly: cells. It is filed as functional, cell-based. The note with it: Homo sapiens.
The nature of experiment [25]: cytotoxicity in HEK-293T cells, dose response, cytotoxicity control for TCR NF-kB inhibitor project, luminescence, T-cell screen hits (AID 489026).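 Further: cells exposed to compound about 14 hours before the viability readout.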 The format is functional, cell-based.
Experiment [26] is described as follows: inhibitors of firefly luciferase expression or activity, dose response, H4 neuroglioma cells, luminescence (AID 1990). It is filed as functional, cell-based.
Experiment [27] is described as follows: inhibitors of SNCA 5'UTR-driven reporter translation, confirmation, H4 neuroglioma cells, luminescence (AID 1988). It is filed as functional, cell-based.
In experiment [28] the target is DNA dC->dU-editing enzyme APOBEC-3A (Homo sapiens, UniProt P31941). Briefly: SAR analysis of small molecule inhibitors of APOBEC3A DNA Deaminase via a fluorescence-based single-stranded DNA deaminase assay. The format is functional. To be noted: read-out: IC50_Mean.
Experiment [29] has as its target DNA dC->dU-editing enzyme APOBEC-3G (Homo sapiens, UniProt Q9HC16). Briefly: APOBEC3G deaminase inhibitors, SAR follow-up, biochemical, fluorescence, single-stranded DNA substrate (AID 602136). The format is functional. To be noted: read-out: IC50_Mean.
For experiment [30], the target named is Luciferin 4-monooxygenase (Photinus pyralis, UniProt P08659). Briefly: firefly luciferase enzyme inhibitors, dose response, biochemical, dry powder samples, plate reader (AID 588451).
The subject of experiment [31] is H4. Briefly: Amyloid Precursor 5' UTR neuroblastoma cell reporter line Measured in Cell-Based System Using Plate Reader - 2078-04_Inhibitor_Dose_DryPowder_Activity. [Related pubchem assays (depositor defined):AID488894]. It is filed as functional. The note with it: Homo sapiens.
Experiment [32] has as its system H4. Briefly: Inhibitors of Prion Protein 5' UTR mRNA Measured in Cell-Based System Using Plate Reader - 2078-01_Inhibitor_Dose_DryPowder_Activity. [Related pubchem assays (depositor defined):AID488894]. It is filed as functional. To be noted: Homo sapiens.
Experiment [33] concerns H4. Nature of the experiment: inhibitors of control reporter signal in H4 cells – cell-based, plate reader, dry powder samples, counter-screen for prion reporter project, dose response (AID 540255). The format is functional. The note with it: Homo sapiens.
The target of experiment [34] is Protein disulfide-isomerase (Homo sapiens, UniProt P07237). Nature of the experiment: PDI inhibitors, insulin aggregation turbidity, dose response, biochemical, absorbance, cherry-picked samples (AID 602350). The format is functional.
The target in experiment [35] is Dual specificity protein kinase CLK4 (Homo sapiens, UniProt Q9HAZ1). It is filed as functional.
The target of experiment [36] is Serine/threonine-protein kinase pim-1 (Homo sapiens, UniProt P11309). The format is functional.
For experiment [37], the target named is Serine/threonine-protein kinase pim-3 (Homo sapiens, UniProt Q86V86). The format is functional.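 Further: value obtained as one member of a broad kinase panel profiling effort.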
Experiment [38] addresses Phospholipase A2 (Homo sapiens, UniProt P04054). The format is functional.
For experiment [39], the target named is Cysteine protease ATG4B (Homo sapiens, UniProt Q9Y4P1). The format is functional.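 Further: Fluorescence-based dose-response confirmation assay measuring inhibition of ATG4B activity.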

Active and inactive are the calls of the source. A value given as a limit tells only on which side of the number the result lay.

Sequence of Cysteine protease ATG4B (Q9Y4P1 whole entry): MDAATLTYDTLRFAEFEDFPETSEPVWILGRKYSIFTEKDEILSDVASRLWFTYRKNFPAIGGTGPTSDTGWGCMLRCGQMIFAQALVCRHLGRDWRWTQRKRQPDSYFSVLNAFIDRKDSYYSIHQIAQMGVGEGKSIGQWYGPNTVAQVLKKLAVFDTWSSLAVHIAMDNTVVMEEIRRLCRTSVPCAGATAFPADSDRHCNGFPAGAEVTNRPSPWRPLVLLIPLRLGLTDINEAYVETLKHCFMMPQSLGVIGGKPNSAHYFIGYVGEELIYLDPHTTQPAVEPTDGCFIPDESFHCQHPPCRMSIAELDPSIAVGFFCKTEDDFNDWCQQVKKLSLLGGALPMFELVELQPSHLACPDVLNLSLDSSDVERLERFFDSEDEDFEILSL
Sequence of Protein disulfide-isomerase (P07237 whole entry): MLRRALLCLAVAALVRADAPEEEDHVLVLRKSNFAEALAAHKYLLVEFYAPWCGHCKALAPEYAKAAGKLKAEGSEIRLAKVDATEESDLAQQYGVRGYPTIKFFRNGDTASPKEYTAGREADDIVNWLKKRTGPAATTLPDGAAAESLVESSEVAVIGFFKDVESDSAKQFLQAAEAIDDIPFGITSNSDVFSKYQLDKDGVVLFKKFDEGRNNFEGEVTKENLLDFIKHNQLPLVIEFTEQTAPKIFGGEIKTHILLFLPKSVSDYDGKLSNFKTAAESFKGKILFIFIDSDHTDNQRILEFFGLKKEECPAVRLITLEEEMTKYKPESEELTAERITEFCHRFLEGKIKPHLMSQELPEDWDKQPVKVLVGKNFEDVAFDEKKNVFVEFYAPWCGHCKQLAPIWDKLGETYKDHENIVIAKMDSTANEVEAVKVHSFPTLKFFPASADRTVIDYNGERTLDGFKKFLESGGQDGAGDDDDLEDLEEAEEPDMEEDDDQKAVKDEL
Sequence of Serine/threonine-protein kinase pim-1 (P11309 whole entry): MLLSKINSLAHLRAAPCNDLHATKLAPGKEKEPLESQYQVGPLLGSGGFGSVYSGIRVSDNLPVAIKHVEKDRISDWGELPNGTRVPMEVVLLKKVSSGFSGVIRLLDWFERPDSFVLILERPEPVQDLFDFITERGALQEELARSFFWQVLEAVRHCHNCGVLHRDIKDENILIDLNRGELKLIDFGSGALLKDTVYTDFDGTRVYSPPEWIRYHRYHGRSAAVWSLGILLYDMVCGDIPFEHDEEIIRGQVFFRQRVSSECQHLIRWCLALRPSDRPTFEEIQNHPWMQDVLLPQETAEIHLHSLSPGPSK
Sequence of Phospholipase A2 (P04054 whole entry): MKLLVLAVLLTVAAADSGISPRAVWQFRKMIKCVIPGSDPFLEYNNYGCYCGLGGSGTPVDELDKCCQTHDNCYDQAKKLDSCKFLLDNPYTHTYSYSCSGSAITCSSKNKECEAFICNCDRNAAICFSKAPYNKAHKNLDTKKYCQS
Sequence of Luciferin 4-monooxygenase (P08659 whole entry): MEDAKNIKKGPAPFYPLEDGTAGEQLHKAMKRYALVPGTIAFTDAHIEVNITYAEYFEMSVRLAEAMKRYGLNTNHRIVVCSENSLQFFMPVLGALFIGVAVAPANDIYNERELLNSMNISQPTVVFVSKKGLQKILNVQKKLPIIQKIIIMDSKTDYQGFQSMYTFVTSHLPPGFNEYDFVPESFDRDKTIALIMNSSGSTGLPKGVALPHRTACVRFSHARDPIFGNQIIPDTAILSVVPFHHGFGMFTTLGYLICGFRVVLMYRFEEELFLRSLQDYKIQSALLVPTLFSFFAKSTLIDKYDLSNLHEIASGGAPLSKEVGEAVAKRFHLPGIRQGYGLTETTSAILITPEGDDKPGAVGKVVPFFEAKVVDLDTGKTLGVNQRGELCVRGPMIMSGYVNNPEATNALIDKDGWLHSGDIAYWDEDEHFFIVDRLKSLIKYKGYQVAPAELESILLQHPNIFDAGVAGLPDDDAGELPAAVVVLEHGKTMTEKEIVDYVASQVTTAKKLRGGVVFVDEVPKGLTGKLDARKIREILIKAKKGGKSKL
Sequence of Dual specificity protein kinase CLK4 (Q9HAZ1 whole entry): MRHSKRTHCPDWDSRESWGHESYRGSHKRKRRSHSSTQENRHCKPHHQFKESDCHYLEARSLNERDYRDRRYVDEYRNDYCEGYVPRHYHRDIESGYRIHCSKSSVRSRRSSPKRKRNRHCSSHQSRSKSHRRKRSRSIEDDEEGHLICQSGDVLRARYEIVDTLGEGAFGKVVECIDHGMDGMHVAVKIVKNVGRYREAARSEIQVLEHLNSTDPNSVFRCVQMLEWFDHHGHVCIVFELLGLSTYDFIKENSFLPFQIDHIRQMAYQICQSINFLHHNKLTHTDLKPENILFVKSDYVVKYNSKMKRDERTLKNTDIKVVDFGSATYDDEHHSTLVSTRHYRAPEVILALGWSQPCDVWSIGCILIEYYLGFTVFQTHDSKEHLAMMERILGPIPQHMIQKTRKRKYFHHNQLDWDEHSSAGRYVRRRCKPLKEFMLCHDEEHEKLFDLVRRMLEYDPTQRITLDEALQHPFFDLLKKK
Sequence of DNA topoisomerase (A0A2S9PM60 whole entry): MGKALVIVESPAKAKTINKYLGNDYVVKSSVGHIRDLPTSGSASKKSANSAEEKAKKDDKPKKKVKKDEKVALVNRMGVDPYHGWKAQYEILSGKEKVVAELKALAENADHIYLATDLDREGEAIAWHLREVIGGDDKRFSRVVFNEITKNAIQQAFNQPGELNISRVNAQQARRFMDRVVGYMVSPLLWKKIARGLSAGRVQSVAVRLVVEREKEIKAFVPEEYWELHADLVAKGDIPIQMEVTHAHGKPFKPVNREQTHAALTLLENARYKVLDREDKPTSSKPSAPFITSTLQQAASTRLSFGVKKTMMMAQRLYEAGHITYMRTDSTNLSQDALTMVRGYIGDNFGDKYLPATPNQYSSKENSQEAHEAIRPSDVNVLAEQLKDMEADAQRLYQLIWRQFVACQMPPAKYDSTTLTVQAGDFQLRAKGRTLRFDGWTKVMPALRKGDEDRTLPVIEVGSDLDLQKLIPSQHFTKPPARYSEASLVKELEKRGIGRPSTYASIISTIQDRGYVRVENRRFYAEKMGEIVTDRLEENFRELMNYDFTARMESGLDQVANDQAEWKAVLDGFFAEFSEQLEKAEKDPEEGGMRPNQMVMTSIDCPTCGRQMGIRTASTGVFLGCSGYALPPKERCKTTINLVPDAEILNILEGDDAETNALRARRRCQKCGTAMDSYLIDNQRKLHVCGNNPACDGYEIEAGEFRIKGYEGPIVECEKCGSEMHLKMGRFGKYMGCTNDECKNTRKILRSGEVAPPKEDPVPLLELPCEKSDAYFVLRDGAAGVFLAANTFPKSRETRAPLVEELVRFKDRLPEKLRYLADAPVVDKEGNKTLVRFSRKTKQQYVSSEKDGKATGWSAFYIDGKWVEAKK
Sequence of DNA dC->dU-editing enzyme APOBEC-3A (P31941 whole entry): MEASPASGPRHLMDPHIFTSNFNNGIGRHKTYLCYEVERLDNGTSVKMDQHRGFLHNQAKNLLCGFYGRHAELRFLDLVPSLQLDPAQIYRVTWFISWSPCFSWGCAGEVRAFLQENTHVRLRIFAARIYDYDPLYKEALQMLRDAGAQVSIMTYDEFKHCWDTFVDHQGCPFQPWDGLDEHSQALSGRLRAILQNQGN
Sequence of DNA dC->dU-editing enzyme APOBEC-3G (Q9HC16 whole entry): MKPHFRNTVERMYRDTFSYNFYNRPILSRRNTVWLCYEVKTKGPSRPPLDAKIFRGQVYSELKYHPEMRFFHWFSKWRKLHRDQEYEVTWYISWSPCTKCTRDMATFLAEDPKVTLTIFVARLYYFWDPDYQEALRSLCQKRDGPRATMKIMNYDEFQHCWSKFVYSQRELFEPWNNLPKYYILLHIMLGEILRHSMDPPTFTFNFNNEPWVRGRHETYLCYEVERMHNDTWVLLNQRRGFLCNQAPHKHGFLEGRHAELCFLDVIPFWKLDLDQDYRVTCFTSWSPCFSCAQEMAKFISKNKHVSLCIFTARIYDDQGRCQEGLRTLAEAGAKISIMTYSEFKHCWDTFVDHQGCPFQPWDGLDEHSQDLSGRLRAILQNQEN

Consider `Cc1cc(NC(=O)c2ccc3c(c2)OCCO3)ccc1NC(=O)c1cc2ccccc2o1`, for which the CC50 in experiment [1] was 18.2 µM (active); in experiment [2] it was > 40 µM (active). For the same molecule, the EC50 is > 150 µM (not active) in [3], 14 µM (active) in [4] and 14.9 µM (active) in [9]. Moreover, the IC50 in [5] was 8.04 µM (active); in experiment [6], 7.55 µM (active); in experiment [7] it was 38.6 µM (inactive); in experiment [8], 8.84 µM (active).
`CC(=O)c1cccc(NC(=O)CCc2nnc3ccc(NCc4ccc5c(c4)OCO5)nn23)c1`: in experiment [10], the half-maximal activity concentration (AC50) is 7.46 µM (active).
With `Nc1c(C(=O)NC2CCCCC2)nsc1C(=O)OCC(=O)NC1CCCCC1`, the CC50 was > 100 µM (active) in experiment [11]; > 100 µM (active) in experiment [12]; > 100 µM (active) in experiment [13]; > 100 µM (active) in experiment [14]; > 50 µM (active) in experiment [15]; > 50 µM (active) in [16]. Moreover, in experiment [17], the CC50 is > 50 µM (active). The IC50 in experiment [18] is 1.88 µM (active).
As to `COc1ccc(OC)c(NS(=O)(=O)c2ccc(N3CCCC3=O)cc2)c1`, the EC50 in [19] was 7.75 µM (active); in experiment [20] it was 1.26 µM (inconclusive); in experiment [21], 0.812 µM (active); in experiment [22], 22.1 µM (active); in experiment [23], 0.463 µM (active); in [24], 27.9 µM (inconclusive). Also, the values for the concentration for a half-maximal effect (EC50) in [26] and in [27] were 3.37 µM (active) and 0.247 µM (active), respectively. The IC50 in [25] is > 80 µM (inactive).
Turning to `CC(=O)c1c(C)[nH]c(C(=O)CN(C)CC(=O)Nc2ccccc2Cl)c1C`, the IC50 in experiment [28] and in experiment [29] was > 99 µM (inactive) in each case.
Turning to `CC1CCCCN1c1ncnc2c1cnn2-c1ccc(Cl)cc1` (centres undefined), the half-maximal activity concentration (AC50) in experiment [30] was 4.19 µM (active); in [31] it was 0.00838 µM (active); in [32] it was 0.018 µM (active); in experiment [33] it was 0.074 µM (active).
With `Cc1noc(C)c1S(=O)(=O)Nc1ccc2c(c1)CC(=O)N([C@H](C)CO)C[C@H](C)[C@H](CN(C)S(=O)(=O)c1ccccc1)O2`, the AC50 in experiment [34] is 19.5 µM (active).
For `O=c1[nH]cnc2c(-c3ccccc3)c(C(F)(F)F)sc12`, the inhibition constant Ki in [35] was 2 µM (active); in experiment [36] it was 1.26 µM (active); in experiment [37] it was 2.51 µM (active).
As for `O=C(CC1SC(N/N=C/c2cccs2)=NC1=O)Nc1ccc(Cl)c(Cl)c1` (centres undefined), the IC50 in experiment [38] is 4.25 µM (active); in experiment [39] it was 13.8 µM (active).
